Reference: patent US9656992B2, “Pyrimidine compounds for the treatment of hepatitis C” (priority 2013, dated 2017)
Like-named read-outs stand apart in the source and are kept apart here.

Test system: HCV pseudoparticles, genotype 1a HCV E1 and E2 envelope (H77C isolate)
Test: HCV pseudoparticle infection assay (luciferase reporter, entry into Huh7 cells)
Type: cell-based
Conditions: Hepatitis C virus, Huh-7, 48 h
[1] = read-out: EC50 (nM) 1a (H77C), HCV pseudoparticles genotype 1a (H77C), Huh7 cells, luciferase measured 2 days after infection, average of duplicates
[2] = read-out: EC50 (nM) 1a (H77C), HCV pseudoparticles genotype 1a (H77C), Huh7 cells, luciferase measured 2 days after infection, class symbols

## CC(C)(CNC(=O)C(N)=O)CNC(=O)c1ccc(Nc2cc(NCc3ccc(Cl)cc3)nc(OCC(F)(F)F)n2)nc1 [Example 1001]
[1]
  EC50: 1.47 nM
[2]
  EC50: 0.01 to 10 nM

## CC(C)(CNC(=O)C(=O)Nc1ccccc1)CNC(=O)c1ccc(Nc2cc(NCc3ccc(Cl)cc3)nc(OCC(F)(F)F)n2)nc1 [Example 1002]
[2]
  EC50: 0.01 to 10 nM

## Cc1ccc(NC(=O)C(=O)NCC(C)(C)CNC(=O)c2ccc(Nc3cc(NCc4ccc(Cl)cc4)nc(OCC(F)(F)F)n3)nc2)cc1 [Example 1003]
[1]
  EC50: 0.214 nM
[2]
  EC50: 0.01 to 10 nM

## CC(C)CNC(=O)C(=O)NCC(C)(C)CNC(=O)c1ccc(Nc2cc(NCc3ccc(Cl)cc3)nc(OCC(F)(F)F)n2)nc1 [Example 1004]
[2]
  EC50: 0.01 to 10 nM

## CC(C)(CNC(=O)C(=O)NC1CCCCC1)CNC(=O)c1ccc(Nc2cc(NCc3ccc(Cl)cc3)nc(OCC(F)(F)F)n2)nc1 [Example 1005]
[2]
  EC50: 0.01 to 10 nM

## CN(C)C(=O)C(=O)NCC(C)(C)CNC(=O)c1ccc(Nc2cc(NCc3ccc(Cl)cc3)nc(OCC(F)(F)F)n2)nc1 [Example 1006]
[2]
  EC50: 10 to 1000 nM

## CC(C)(CNC(=O)C(=O)N1CCc2ccccc2C1)CNC(=O)c1ccc(Nc2cc(NCc3ccc(Cl)cc3)nc(OCC(F)(F)F)n2)nc1 [Example 1007]
[2]
  EC50: 0.01 to 10 nM

## CC(C)(CNC(=O)C(=O)Nc1ccc(F)cc1F)CNC(=O)c1ccc(Nc2cc(NCc3ccc(Cl)cc3)nc(OCC(F)(F)F)n2)nc1 [Example 1008]
[2]
  EC50: 0.01 to 10 nM

## CNC(=O)C(=O)NCC(C)(C)CNC(=O)c1ccc(Nc2cc(NCc3ccc(Cl)cc3)nc(OCC(F)(F)F)n2)nc1 [Example 1009]
[2]
  EC50: 0.01 to 10 nM

## CC(C)(CNC(=O)C(=O)N1CCCCC1)CNC(=O)c1ccc(Nc2cc(NCc3ccc(Cl)cc3)nc(OCC(F)(F)F)n2)nc1 [Example 1010]
[2]
  EC50: 10 to 1000 nM

## Cc1nnc(NC(=O)C(=O)NCC(C)(C)CNC(=O)c2ccc(Nc3cc(NCc4ccc(Cl)cc4)nc(OCC(F)(F)F)n3)nc2)s1 [Example 1011]
[2]
  EC50: 10 to 1000 nM

## CC(C)(CNC(=O)C(=O)Nc1ccc(F)cc1)CNC(=O)c1ccc(Nc2cc(NCc3ccc(Cl)cc3)nc(OCC(F)(F)F)n2)nc1 [Example 1012]
[1]
  EC50: 0.482 nM
[2]
  EC50: 0.01 to 10 nM

## CC(C)(CNC(=O)C(=O)Nc1nccs1)CNC(=O)c1ccc(Nc2cc(NCc3ccc(Cl)cc3)nc(OCC(F)(F)F)n2)nc1 [Example 1013]
[2]
  EC50: 0.01 to 10 nM

## CC(C)(CNC(=O)C(=O)Nc1cccc(F)c1)CNC(=O)c1ccc(Nc2cc(NCc3ccc(Cl)cc3)nc(OCC(F)(F)F)n2)nc1 [Example 1014]
[2]
  EC50: 0.01 to 10 nM

## Cc1cc(NC(=O)C(=O)NCC(C)(C)CNC(=O)c2ccc(Nc3cc(NCc4ccc(Cl)cc4)nc(OCC(F)(F)F)n3)nc2)no1 [Example 1015]
[1]
  EC50: 1.31 nM
[2]
  EC50: 0.01 to 10 nM

## CC(C)(CNC(=O)C(=O)Nc1nncs1)CNC(=O)c1ccc(Nc2cc(NCc3ccc(Cl)cc3)nc(OCC(F)(F)F)n2)nc1 [Example 1016]
[1]
  EC50: 56.8 nM
[2]
  EC50: 10 to 1000 nM

## CC(C)(CNC(=O)C(=O)N1CCOCC1)CNC(=O)c1ccc(Nc2cc(NCc3ccc(Cl)cc3)nc(OCC(F)(F)F)n2)nc1 [Example 1017]
[1]
  EC50: 26.8 nM
[2]
  EC50: 10 to 1000 nM

## CC(C)(CNC(=O)C(=O)NCc1ccc(F)cc1)CNC(=O)c1ccc(Nc2cc(NCc3ccc(Cl)cc3)nc(OCC(F)(F)F)n2)nc1 [Example 1018]
[2]
  EC50: 0.01 to 10 nM

## CC(C)(CNC(=O)C(=O)Nc1cc(F)cc(F)c1)CNC(=O)c1ccc(Nc2cc(NCc3ccc(Cl)cc3)nc(OCC(F)(F)F)n2)nc1 [Example 1019]
[2]
  EC50: 10 to 1000 nM

## CC(C)(CNC(=O)C(=O)Nc1ccc(Cl)cc1)CNC(=O)c1ccc(Nc2cc(NCc3ccc(Cl)cc3)nc(OCC(F)(F)F)n2)nc1 [Example 1020]
[2]
  EC50: 0.01 to 10 nM
